From PubChem BioAssay (NCI)
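In this assay, cells in 96-well plates receive the compound at five concentrations for 48 hours. Endpoints are linearly interpolated between the surrounding concentrations. GI50 = concentration required for 50% inhibition of growth. TGI denotes the concentration required for complete inhibition of growth.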

What was measured:
Assay in all cases: NCI tumour cell line growth inhibition, 48 h
SNB-19 CNS = tested on: SNB-19 CNS
UACC-62 melanoma = tested on: UACC-62 melanoma
NCI/ADR-RES ovarian = tested on: NCI/ADR-RES ovarian
U251 CNS = tested on: U251 CNS
OVCAR-8 ovarian = tested on: OVCAR-8 ovarian
EKVX NSCLC = tested on: EKVX NSCLC
OVCAR-5 ovarian = tested on: OVCAR-5 ovarian
MALME-3M melanoma = tested on: MALME-3M melanoma
HOP-92 NSCLC = tested on: HOP-92 NSCLC
SK-MEL-2 melanoma = tested on: SK-MEL-2 melanoma
KM12 colon = tested on: KM12 colon
SK-MEL-5 melanoma = tested on: SK-MEL-5 melanoma
CAKI-1 renal = tested on: CAKI-1 renal
OVCAR-3 ovarian = tested on: OVCAR-3 ovarian
A498 renal = tested on: A498 renal
NCI-H460 lung = tested on: NCI-H460 lung
SW-620 colon = tested on: SW-620 colon
UO-31 renal = tested on: UO-31 renal
A549 NSCLC = tested on: A549 NSCLC
SF-295 CNS = tested on: SF-295 CNS
SF-268 CNS = tested on: SF-268 CNS
COLO 205 colon = tested on: COLO 205 colon
SR leukemia = tested on: SR leukemia
MCF7 breast = tested on: MCF7 breast
HS 578T breast = tested on: HS 578T breast
HOP-62 NSCLC = tested on: HOP-62 NSCLC
IGROV1 ovarian = tested on: IGROV1 ovarian
SN12C renal = tested on: SN12C renal
SF-539 CNS = tested on: SF-539 CNS
MDA-MB-435 = tested on: MDA-MB-435
HCT-15 colon = tested on: HCT-15 colon
K-562 leukemia = tested on: K-562 leukemia
NCI-H522 lung = tested on: NCI-H522 lung
SK-OV-3 ovarian = tested on: SK-OV-3 ovarian
UACC-257 melanoma = tested on: UACC-257 melanoma
HCT-116 colon = tested on: HCT-116 colon
SNB-75 CNS = tested on: SNB-75 CNS
HCC-2998 colon = tested on: HCC-2998 colon
NCI-H226 lung = tested on: NCI-H226 lung
SK-MEL-28 melanoma = tested on: SK-MEL-28 melanoma
LOX IMVI melanoma = tested on: LOX IMVI melanoma
RPMI-8226 leukemia = tested on: RPMI-8226 leukemia
TK-10 renal = tested on: TK-10 renal
ACHN renal = tested on: ACHN renal
786-0 renal = tested on: 786-0 renal
OVCAR-4 ovarian = tested on: OVCAR-4 ovarian
RXF 393 renal = tested on: RXF 393 renal
DU-145 prostate = tested on: DU-145 prostate
MOLT-4 leukemia = tested on: MOLT-4 leukemia
MDA-MB-231 breast = tested on: MDA-MB-231 breast
NCI-H23 lung = tested on: NCI-H23 lung
BT-549 breast = tested on: BT-549 breast
HT29 colon = tested on: HT29 colon

## Nc1ccccc1C#C/C=C\C#Cc1ccc(OCCCNC(=O)c2cc3ccccc3[nH]2)cc1
SNB-19 CNS
  GI50: 20.6 µM
  TGI: 56.8 µM
UACC-62 melanoma
  GI50: 4.11 µM
  TGI: > 100 µM
NCI/ADR-RES ovarian
  GI50: 10.1 µM
  TGI: > 100 µM
U251 CNS
  GI50: 12.5 µM
  TGI: 25 µM
OVCAR-8 ovarian
  GI50: 42.4 µM
  TGI: > 100 µM
EKVX NSCLC
  GI50: 16.4 µM
  TGI: 92.7 µM
OVCAR-5 ovarian
  GI50: 32.3 µM
  TGI: > 100 µM
MALME-3M melanoma
  GI50: 1.08 µM
  TGI: 18.3 µM
HOP-92 NSCLC
  GI50: 14.4 µM
  TGI: 37.5 µM
SK-MEL-2 melanoma
  GI50: > 100 µM
  TGI: > 100 µM
KM12 colon
  GI50: 5.98 µM
  TGI: > 100 µM
SK-MEL-5 melanoma
  GI50: 2.09 µM
  TGI: 25.7 µM
CAKI-1 renal
  GI50: 18.1 µM
  TGI: 72 µM
OVCAR-3 ovarian
  GI50: 11.7 µM
  TGI: 95.6 µM
A498 renal
  GI50: 23 µM
  TGI: 48.3 µM
NCI-H460 lung
  GI50: 9.83 µM
  TGI: > 100 µM
SW-620 colon
  GI50: > 100 µM
  TGI: > 100 µM
UO-31 renal
  GI50: 41.7 µM
  TGI: > 100 µM
A549 NSCLC
  GI50: 11.6 µM
  TGI: 31.3 µM
SF-295 CNS
  GI50: 12.1 µM
  TGI: 47.1 µM
SF-268 CNS
  GI50: 2.37 µM
  TGI: 37.4 µM
COLO 205 colon
  GI50: 9.12 µM
  TGI: > 100 µM
SR leukemia
  GI50: 23.3 µM
  TGI: 99 µM
MCF7 breast
  GI50: 1.26 µM
  TGI: 7.15 µM
HS 578T breast
  GI50: 15.1 µM
  TGI: > 100 µM
HOP-62 NSCLC
  GI50: 15.7 µM
  TGI: 35.7 µM
IGROV1 ovarian
  GI50: 25.5 µM
  TGI: > 100 µM
SN12C renal
  GI50: 7.32 µM
  TGI: 39.8 µM
SF-539 CNS
  GI50: 18.2 µM
  TGI: 37.5 µM
MDA-MB-435
  GI50: 20.6 µM
  TGI: > 100 µM
HCT-15 colon
  GI50: > 100 µM
  TGI: > 100 µM
K-562 leukemia
  GI50: 16.1 µM
  TGI: > 100 µM
NCI-H522 lung
  GI50: > 100 µM
  TGI: > 100 µM
SK-OV-3 ovarian
  GI50: 4.36 µM
  TGI: 33.1 µM
UACC-257 melanoma
  GI50: 13 µM
  TGI: 53.3 µM
HCT-116 colon
  GI50: 12.4 µM
  TGI: 40.6 µM
SNB-75 CNS
  GI50: 11.2 µM
  TGI: 73.3 µM
HCC-2998 colon
  GI50: 31.5 µM
  TGI: > 100 µM
NCI-H226 lung
  GI50: 14.4 µM
  TGI: 87.7 µM
SK-MEL-28 melanoma
  GI50: > 100 µM
  TGI: > 100 µM
LOX IMVI melanoma
  GI50: 2.77 µM
  TGI: 28.7 µM
RPMI-8226 leukemia
  GI50: 1.01 µM
  TGI: 17.6 µM
TK-10 renal
  GI50: 17.3 µM
  TGI: 53.5 µM
ACHN renal
  GI50: 6.61 µM
  TGI: 40.9 µM
786-0 renal
  GI50: 12.6 µM
  TGI: 25.7 µM
OVCAR-4 ovarian
  GI50: 21.4 µM
  TGI: > 100 µM
RXF 393 renal
  GI50: 7.15 µM
  TGI: 22 µM
DU-145 prostate
  GI50: 35.4 µM
  TGI: > 100 µM
MOLT-4 leukemia
  GI50: 49.4 µM
  TGI: > 100 µM
MDA-MB-231 breast
  GI50: 1.93 µM
  TGI: 14.6 µM
NCI-H23 lung
  GI50: 7.62 µM
  TGI: 43.6 µM
BT-549 breast
  GI50: 9.23 µM
  TGI: > 100 µM
HT29 colon
  GI50: 32 µM
  TGI: > 100 µM
